From patent US10610522B2, “Methods for retreating irritable bowel syndrome (IBS)” (Salix Pharmaceuticals, Inc., priority 2014, dated 2020)

System: d-IBS
Assay: Study of rifaximin BID doses vs placebo in subjects with d-IBS: adequate relief of IBS symptoms and bloating
Assay type: in vivo, human
Conditions: for Percentage of subjects with adequate relief of IBS symptoms / Percentage of subjects with adequate relief of bloating symptom: RFX 550 mg BID 14 d, at least 2 of final 3 weeks of treatment phase (Weeks 1-4); for Adequate relief of bloating, post treatment, Failures / Adequate relief of bloating, post treatment, Success / Adequate relief of bloating, post treatment, Failure: RFX 550 2w (N = 54); for Patients with adequate relief of bloating / Patients with adequate relief of global IBS symptoms: 550 mg BID 14 d
Procedure: This example relates to a study of rifaximin in subjects with d-IBS. […] There were two measures of efficacy assessed. Subjects were questioned on the relief of overall IBS symptoms and bloating. […] The analyses defined success as a “yes” response to questions regarding adequate relief.
All subpopulations in the study responded to therapy. Baseline severity was determined using 7-point Lickert scales during screening for Abdominal Pain/Discomfort and Bloating, and the number, type (normal, hard, loose) and urgency of bowel movements.
Duration of effect was assessed in a follow-up period. Subjects that responded in the 4 week treatment period were followed for an additional 3 months.
The effect of treatment on the percentage of subjects who reported adequate relief of IBS and bloating symptoms for at least two of the final three weeks during the treatment phase (Weeks 1 to 4) is shown in Tables 5-7 and FIGS. 4-6 below.
The study assessed the effect over 12 weeks of follow-up on long-term adequate relief. Subjects who had adequate relief by Week 4 and remained symptom-free at Week 5 were followed during the post-treatment phase and shown in FIGS. 1 and 2. Superiority to placebo was maintained during the 12 weeks post-treatment follow-up. Results for IBS symptoms were RFX 550 mg BID 62.3% versus placebo 49.2%, and RFX 550 mg BID 59.3% versus 50.9% for placebo for the symptom of bloating through week 16. In assessing the follow-up data, there was statistical significance (p<0.05) of bloating and IBS symptoms for RFX 550 mg BID versus placebo.
Two measures of efficacy were assessed independently. The first was the proportion of subjects who provided a ‘yes’ response to the weekly SGA question: “In the past 7 days, have you had adequate relief of your IBS symptoms? (yes/no)”. The second endpoint was the proportion of subjects who provide a ‘yes’ response to the weekly individual symptom question: “In the past 7 days, have you had adequate relief of your symptom of bloating? (yes/no)”. Durability was based on the proportion of subjects that had adequate relief over the entire treatment phase.
It is reported herein that the severity of baseline symptoms of abdominal pain and bloating influenced the response to rifaximin treatment. The co-primary endpoints in this analysis assessed weekly yes/no responses to questions regarding adequate relief of global IBS symptoms and IBS-associated bloating. Severity of baseline IBS symptoms was evaluated as a potential confounder of clinical response and was categorized as mild/moderate or severe based on a mean score of ≤4 vs. >4 (on a 7-point scale) for bloating and abdominal pain.
The Weekly yes/no responses to questions regarding adequate relief of global IBS symptoms and IBS-associated bloating were assessed. Clinical response was defined as adequate relief for 2 of the final 3 treatment weeks (wk 2, 3, or 4). Severity of baseline IBS symptoms was evaluated as a potential confounder of clinical response and was categorized as mild/moderate or severe based on a mean score of ≤4 versus >4 (on a 7-point scale (0=not bothersome; 6=very bothersome)) for bloating and abdominal pain.

[1] = RFX 550 mg BID, responders followed through week 16
[2] = patients with mild/moderate abdominal pain at baseline
[3] = patients with mild/moderate bloating at baseline

CO[C@H]1/C=C/O[C@@]2(C)Oc3c(C)c(O)c4c(O)c(c5c(nc6cc(C)ccn65)c4c3C2=O)NC(=O)/C(C)=C\C=C\[C@H](C)[C@H](O)[C@@H](C)[C@@H](O)[C@@H](C)[C@H](OC(C)=O)[C@@H]1C [Rifaximin, (2S,16Z,18E,20S,21S,22R,23R,24R,25S,26S,27S,28E)-5,6,21,23,25 Pentahydroxy-27-methoxy-2,4,11,16,20,22,24,26-octamethyl-2,7-(epoxypentadeca-(1,11,13)trienimino) benzofuro (4,5-e) pyrido(1,2-a) benzimidazole-1,15(2H)-dione,25-acetate]
Treatment effect, Bloating (Age <65): 6.8% | Treatment effect, IBS Sx (Age <65): 6.9% | Treatment effect, Bloating (Age ≥65): 3.2% | Treatment effect, IBS Sx (Age ≥65): 19.1% | Treatment effect, Bloating (Diabetes History N): 7.4% | Treatment effect, IBS Sx (Diabetes History N): 9.5% | Treatment effect, Bloating (Diabetes History Y): −5.6% | Treatment effect, IBS Sx (Diabetes History Y): −12.7% | Treatment effect, Bloating (Disease Duration 10-20 y): 11.7% | Treatment effect, IBS Sx (Disease Duration 10-20 y): 20.1% | Treatment effect, Bloating (Disease Duration >20 y): 35.1% | Treatment effect, IBS Sx (Disease Duration >20 y): 46.6% | Treatment effect, Bloating (Disease Duration ≤10 y): 2.8% | Treatment effect, IBS Sx (Disease Duration ≤10 y): 1.8% | Adequate relief of IBS symptoms at end of treatment phase, Failure (Female, RFX 275 2w): 46 (56.8%) n (%) | Adequate relief of IBS symptoms at end of treatment phase, Success (Female, RFX 275 2w): 35 (43.2%) n (%) | Adequate relief of bloating at end of treatment phase, Failure (Female, RFX 275 2w): 52 (64.2%) n (%) | Adequate relief of bloating at end of treatment phase, Success (Female, RFX 275 2w): 29 (35.8%) n (%) | Adequate relief of IBS symptoms at end of treatment phase, Failure (Female, RFX 550 2w): 66 (48.2%) n (%) | Adequate relief of IBS symptoms at end of treatment phase, Success (Female, RFX 550 2w): 71 (51.8%) n (%) | Adequate relief of bloating at end of treatment phase, Failure (Female, RFX 550 2w): 74 (54.0%) n (%) | Adequate relief of bloating at end of treatment phase, Success (Female, RFX 550 2w): 63 (46.0%) n (%) | Adequate relief of IBS symptoms at end of treatment phase, Failure (Female, RFX 550 4w): 42 (55.3%) n (%) | Adequate relief of IBS symptoms at end of treatment phase, Success (Female, RFX 550 4w): 34 (44.7%) n (%) | Adequate relief of bloating at end of treatment phase, Failure (Female, RFX 550 4w): 44 (57.9%) n (%) | Adequate relief of bloating at end of treatment phase, Success (Female, RFX 550 4w): 32 (42.1%) n (%) | Adequate relief of IBS symptoms at end of treatment phase, Failure (Female, RFX 1100 2w): 44 (60.3%) n (%) | Adequate relief of IBS symptoms at end of treatment phase, Success (Female, RFX 1100 2w): 29 (39.7%) n (%) | Adequate relief of bloating at end of treatment phase, Failure (Female, RFX 1100 2w): 45 (61.6%) n (%) | Adequate relief of bloating at end of treatment phase, Success (Female, RFX 1100 2w): 28 (38.4%) n (%) | Treatment effect, Bloating (Gender F): 3.9% | Treatment effect, IBS Sx (Gender F): 3.5% | Treatment effect, Bloating (Gender M): 13.6% | Treatment effect, IBS Sx (Gender M): 21% | Adequate relief of IBS symptoms at end of treatment phase, Failure (Male, RFX 275 2w): 9 (64.3%) n (%) | Adequate relief of IBS symptoms at end of treatment phase, Success (Male, RFX 275 2w): 5 (35.7%) n (%) | Adequate relief of bloating at end of treatment phase, Failure (Male, RFX 275 2w): 8 (57.1%) n (%) | Adequate relief of bloating at end of treatment phase, Success (Male, RFX 275 2w): 6 (42.9%) n (%) | Adequate relief of IBS symptoms at end of treatment phase, Failure (Male, RFX 550 2w): 25 (46.3%) n (%) | Adequate relief of IBS symptoms at end of treatment phase, Success (Male, RFX 550 2w): 29 (53.7%) n (%) | Adequate relief of bloating at end of treatment phase, Failure (Male, RFX 550 2w): 29 (53.7%) n (%) | Adequate relief of bloating at end of treatment phase, Success (Male, RFX 550 2w): 25 (46.3%) n (%) | Adequate relief of IBS symptoms at end of treatment phase, Failure (Male, RFX 550 4w): 15 (68.2%) n (%) | Adequate relief of IBS symptoms at end of treatment phase, Success (Male, RFX 550 4w): 7 (31.8%) n (%) | Adequate relief of bloating at end of treatment phase, Failure (Male, RFX 550 4w): 16 (72.7%) n (%) | Adequate relief of bloating at end of treatment phase, Success (Male, RFX 550 4w): 6 (27.3%) n (%) | Adequate relief of IBS symptoms at end of treatment phase, Failure (Male, RFX 1100 2w): 14 (53.8%) n (%) | Adequate relief of IBS symptoms at end of treatment phase, Success (Male, RFX 1100 2w): 12 (46.2%) n (%) | Adequate relief of bloating at end of treatment phase, Failure (Male, RFX 1100 2w): 16 (61.5%) n (%) | Adequate relief of bloating at end of treatment phase, Success (Male, RFX 1100 2w): 10 (38.5%) n (%) | Percentage of subjects with adequate relief of IBS symptoms (ITT): 52% | Percentage of subjects with adequate relief of bloating symptom (ITT): 46% | Percentage of subjects with adequate relief of IBS symptoms (ITT, listed as RFX): 52.4% | Percentage of subjects with adequate relief of bloating symptom (ITT, listed as RFX): 46.1% | Percentage of subjects with 0 weeks with adequate relief of IBS symptoms (RFX 550 mg BID, ITT): 33% | Percentage of subjects with 0 weeks with adequate relief of bloating symptoms (RFX 550 mg BID, ITT): 35% | Percentage of subjects with 1 week with adequate relief of IBS symptoms (RFX 550 mg BID, ITT): 11% | Percentage of subjects with 1 week with adequate relief of bloating symptoms (RFX 550 mg BID, ITT): 14% | Percentage of subjects with 2 weeks with adequate relief of IBS symptoms (RFX 550 mg BID, ITT): 15% | Percentage of subjects with 2 weeks with adequate relief of bloating symptoms (RFX 550 mg BID, ITT): 15% | Percentage of subjects with 3 weeks with adequate relief of IBS symptoms (RFX 550 mg BID, ITT): 23% | Percentage of subjects with 3 weeks with adequate relief of bloating symptoms (RFX 550 mg BID, ITT): 20% | Percentage of subjects with 4 weeks with adequate relief of IBS symptoms (RFX 550 mg BID, ITT): 16% | Percentage of subjects with 4 weeks with adequate relief of bloating symptoms (RFX 550 mg BID, ITT): 14% | Long-term adequate relief of IBS symptoms in post-treatment follow-up [1]: 62.3% | Long-term adequate relief of the symptom of bloating in post-treatment follow-up [1]: 59.3% | Adequate relief of bloating, post treatment, Failures (Week 6): 5 (9.3%) n (%) | Adequate relief of bloating, post treatment, Success (Week 6): 49 (90.7%) n (%) | Adequate relief of bloating, post treatment, Failures (Week 7): 9 (16.7%) n (%) | Adequate relief of bloating, post treatment, Success (Week 7): 45 (83.3%) n (%) | Adequate relief of bloating, post treatment, Failures (Week 8): 7 (13.0%) n (%) | Adequate relief of bloating, post treatment, Success (Week 8): 47 (87.0%) n (%) | Adequate relief of bloating, post treatment, Failures (Week 9): 15 (27.8%) n (%) | Adequate relief of bloating, post treatment, Success (Week 9): 39 (72.2%) n (%) | Adequate relief of bloating, post treatment, Failures (Week 10): 15 (27.8%) n (%) | Adequate relief of bloating, post treatment, Success (Week 10): 39 (72.2%) n (%) | Adequate relief of bloating, post treatment, Failures (Week 11): 19 (35.2%) n (%) | Adequate relief of bloating, post treatment, Success (Week 11): 35 (64.8%) n (%) | Adequate relief of bloating, post treatment, Failure (Week 12): 18 (33.3%) n (%) | Adequate relief of bloating, post treatment, Success (Week 12): 36 (66.7%) n (%) | Adequate relief of bloating, post treatment, Failure (Week 13): 21 (38.9%) n (%) | Adequate relief of bloating, post treatment, Success (Week 13): 33 (61.1%) n (%) | Adequate relief of bloating, post treatment, Failure (Week 14): 20 (37.0%) n (%) | Adequate relief of bloating, post treatment, Success (Week 14): 34 (63.0%) n (%) | Adequate relief of bloating, post treatment, Failure (Week 15): 23 (42.6%) n (%) | Adequate relief of bloating, post treatment, Success (Week 15): 31 (57.4%) n (%) | Adequate relief of bloating, post treatment, Failure (Week 16): 22 (40.7%) n (%) | Adequate relief of bloating, post treatment, Success (Week 16): 32 (59.3%) n (%) | Treatment effect, Bloating (aIBS): 31.4%*, 31.4% | Treatment effect, IBS Sx (aIBS): 31.4%*, 31.4% | Treatment effect, Bloating (dIBS only): 4.5% | Treatment effect, IBS Sx (dIBS only): 6.3% | Patients with adequate relief of bloating [2]: 44% | Patients with adequate relief of global IBS symptoms [2]: 50% | Patients with adequate relief of bloating [3]: 47% | Patients with adequate relief of global IBS symptoms [3]: 56%
